Like-named read-outs stand apart in the source and are kept apart here.
Legend:
P. larvae spores [1] = assay: Inhibition of P. larvae spore germination, IC50 titration of indole analogs (Example 2); assay type: cell-based, Paenibacillus larvae subsp. pulvifaciens strain ATCC 49843
Description: After a 15 minute incubation, the spores were treated with 3 mM L-tyrosine-3 mM uric acid. The germination rate was set to 100% for P. larvae spores germinated in the absence of inhibitor. Germination rates for other conditions were divided by the uninhibited maximum germination rate obtained with 3 mM L-tyrosine-3 mM uric acid, and are reported as percent germination. Percent germination was plotted against the inhibitor concentrations.

[2] = tested on: honey bee larvae contacted with P. larvae spores; assay: Survival of honey bee larvae fed diet with indole analogs and P. larvae spores; assay type: in vivo; conditions: 0.5 mM in larval diet (wj) plus P. larvae spores; for survival of honey bee larvae vs P. larvae spores alone: 7-day development, p<0.002
Description: First instar honey bee larvae were obtained from two colonies headed by naturally mated queens (Honey Bee Genetics, Vacaville Calif.). Queens were trapped on empty frames within a cage constructed with queen excluder. Worker bees can fit through the excluder but the queen cannot exit the cage. The frame was placed within the brood chamber to stimulate egg laying by the queen overnight. Eggs were incubated in the hive for 4 days to allow newly hatched larvae to be fed by nurse bees. First instar honey bee larvae were brought into the laboratory and stored in a 35° C. 85% relative humidity chamber before grafting.
Sterile six well plates with a well volume of 17.0 ml were filled with 2.5 ml of pre-warmed artificial worker jelly. Honey bee larvae were transferred into each well using the thin tongue made of flexible plastic from a Chinese grafting tool. The plastic grafting tool was decontaminated with 70% ethanol throughout usage. Grafting was performed in the sterile environment of a honey bee laboratory, and honey bee larvae were then transferred to a bacterial spore laboratory for control and spore exposure treatments.
Artificial worker jelly was prepared using a lyophilized royal jelly, D-glucose, D-fructose, yeast extract, and autoclaved double distilled water. Ingredients minus lyophilized royal jelly were dissolved in autoclaved double distilled water. Lyophilized royal jelly was added to this sugar-yeast extract solution and mixed thoroughly with a vortex mixer. Artificial diet was prepared an hour prior to use for larval rearing. To reduce the development of worker-queen hybrids because of nutrition, the composition and amounts of artificial worker jelly were controlled in every larval stage.
Honey bee larvae were incubated in an air tight plastic container placed inside an incubator. The desired relative humidity (95%) and temperature (35° C.) was verified with an iButton data logger (Maxim Integrated; San Jose, Calif.). The appropriate relative humidity was obtained by placing a solution of 20% glycerol by weight. The plastic containers were was decontaminated throughout usage with detergent, 70% ethanol, and treated with an ultraviolet lamp overnight.
Feeding of diets was performed daily in different amounts according to Table 2. The amount of diet consumed by larvae was assumed based on published literature. A micropipette was used to place a food drop next to the mouth of the larvae. Drowning was avoided by maintaining the appropriate humidity and water content of diet. Forty first and second instar larvae were placed into one well of a six well plate. Third instar larvae were transferred individually to 48 well plates filled with fresh food.
Larval survival was determined daily by observing signs of respiration, disease symptoms, and other abnormalities with a stereo microscope. The number of dead larvae was recorded, and surviving larvae were fed fresh food. The start of pupation was indicated by the appearance of uric acid crystals and light yellow excretions in the remaining food.
The larval survival data was analyzed using the LogRank test in SigmaPlot.

P. larvae spores [3] = assay: Inhibition of P. larvae spore germination by indole and phenol, IC50 titration (Example 1); assay type: cell-based, Paenibacillus larvae subsp. pulvifaciens strain ATCC 49843; conditions: for IC50: Paenibacillus larvae
Description: The decrease in optical density is proportional to spore germination (Powell, J. Gen. Microbiol., 4:330-338, 1950). Changes in light diffraction during spore germination were monitored at 580 nm (OD580) on a Biomate 5 (ThermoElectron Corporation, Waltham, Mass.) or a Tecan Infinite m200 (Tecan group, Männedorf, Switzerland) spectrophotometer. Experiments were carried out in 96-well plates (200 μL/well). In preparation for germination assays, P. larvae spore suspensions were washed three times with water. Spores were then heat activated at 70° C. for 30 minutes. The heat-activated spores were allowed to reach room temperature and transferred to 0.1 M sodium phosphate buffer (pH 7.0) to an approximate OD580 of 0.70. Spores were monitored for auto-germination for 30 minutes. […] Putative germinants were added individually or in combinations to a final concentration of 3 mM. Experiments were performed in triplicate with at least two different spore preparations. After germinant addition, OD580 of the spore suspension was measured every minute for an hour. Relative OD values were derived by dividing each OD580 reading by the initial OD580. Spore germination rates (v) were calculated from the initial linear decrease in relative OD (Akoachere et al., supra). Germination rates were set to 100% for P. larvae spores that had the fastest germination rate in an assay. Germination rates for other conditions were divided by the maximum germination rate for that assay and are reported as percent germination. […] Spore germination was confirmed in selected samples by microscope observation of Schaeffer-Fulton stained aliquots (Schaeffer and Fulton, supra).
After 15 minutes of incubation, spores were treated with 3 mM L-tyrosine/3 mM uric acid. The germination rate was set to 100% for P. larvae spores germinated in the absence of inhibitor. Germination rates for other conditions were divided by the uninhibited maximum germination rate obtained with 3 mM L-tyrosine/3 mM uric acid, and are reported as percent germination. Percent germination was plotted against inhibitor concentrations. The resulting sigmoidal curves were fitted using the four parameter logistic function in SigmaPlot v.9 to calculate IC50 values.

P. larvae spores [4] = assay: Antagonists of P. larvae spore germination, 3 mM (Example 1); assay type: cell-based, Paenibacillus larvae subsp. pulvifaciens strain ATCC 49843; conditions: 3 mM analog, 15 minutes, then 3 mM L-tyrosine/3 mM uric acid
Description: (§1) The decrease in optical density is proportional to spore germination (Powell, J. Gen. Microbiol., 4:330-338, 1950). Changes in light diffraction during spore germination were monitored at 580 nm (OD580) on a Biomate 5 (ThermoElectron Corporation, Waltham, Mass.) or a Tecan Infinite m200 (Tecan group, Männedorf, Switzerland) spectrophotometer. Experiments were carried out in 96-well plates (200 μL/well). In preparation for germination assays, P. larvae spore suspensions were washed three times with water. Spores were then heat activated at 70° C. for 30 minutes. The heat-activated spores were allowed to reach room temperature and transferred to 0.1 M sodium phosphate buffer (pH 7.0) to an approximate OD580 of 0.70. Spores were monitored for auto-germination for 30 minutes. […] Putative germinants were added individually or in combinations to a final concentration of 3 mM. Experiments were performed in triplicate with at least two different spore preparations. After germinant addition, OD580 of the spore suspension was measured every minute for an hour. Relative OD values were derived by dividing each OD580 reading by the initial OD580. Spore germination rates (v) were calculated from the initial linear decrease in relative OD (Akoachere et al., supra). Germination rates were set to 100% for P. larvae spores that had the fastest germination rate in an assay. Germination rates for other conditions were divided by the maximum germination rate for that assay and are reported as percent germination. Standard deviations were calculated from at least six independent measurements and are typically below 10%. Spore germination was confirmed in selected samples by microscope observation of Schaeffer-Fulton stained aliquots (Schaeffer and Fulton, supra).
To test for possible antagonists of P. larvae spore germination, spores were individually supplemented with 3 mM of a purine analog or 3 mM of an amino acid analog. […] If no germination was detected, L-tyrosine and uric acid were added to 3 mM final concentrations, and germination was monitored as described above. […]

P. larvae spores [5] = assay: Determination of germinants / agonists of P. larvae spore germination (OD580 decrease); assay type: cell-based, Paenibacillus larvae subsp. pulvifaciens strain ATCC 49843; conditions: 3 mM amino acid or analog plus 3 mM uric acid
Description: as §1
To test for possible agonists of P. larvae spore germination, spores were individually supplemented with 3 mM of a purine analog and 3 mM L-tyrosine. Separately, P. larvae spores were incubated with 3 mM of an amino acid analog and 3 mM uric acid. Spore germination was monitored as described above. […]

[6] = tested on: P. larvae subsp. larvae spores; assay type: cell-based, Paenibacillus larvae subsp. larvae
Excerpt: Chemicals were purchased from Sigma Aldrich Corporation (St. Louis, Mo.). Dehydrated culture media was purchased from BD Difco (Franklin Lakes, N.J.). Paenibacillus larvae subsp. pulvifaciens strain ATCC 49843 was purchased from the […] (ATCC). Environmental American Foulbrood scales (the remains of infected larvae collected from infected hives) were kindly donated by Dr. Jay D. Evans at the USDA Bee Research Facility in Beltsville, Md.
To test the generality of P. larvae spore response, spores were prepared from P. larvae subsp. pulvifaciens strain ATCC 49843, and also from an environmental AFB sample.

P. larvae spores [7] = assay: Activation of P. larvae spore germination by L-tyrosine and uric acid (titration); assay type: cell-based, Paenibacillus larvae subsp. pulvifaciens strain ATCC 49843; conditions: Paenibacillus larvae
Description: The decrease in optical density is proportional to spore germination (Powell, J. Gen. Microbiol., 4:330-338, 1950). Changes in light diffraction during spore germination were monitored at 580 nm (OD580) on a Biomate 5 (ThermoElectron Corporation, Waltham, Mass.) or a Tecan Infinite m200 (Tecan group, Männedorf, Switzerland) spectrophotometer. Experiments were carried out in 96-well plates (200 μL/well). In preparation for germination assays, P. larvae spore suspensions were washed three times with water. Spores were then heat activated at 70° C. for 30 minutes. The heat-activated spores were allowed to reach room temperature and transferred to 0.1 M sodium phosphate buffer (pH 7.0) to an approximate OD580 of 0.70. Spores were monitored for auto-germination for 30 minutes. […] After germinant addition, OD580 of the spore suspension was measured every minute for an hour. Relative OD values were derived by dividing each OD580 reading by the initial OD580. Spore germination rates (v) were calculated from the initial linear decrease in relative OD (Akoachere et al., supra). […] Standard deviations were calculated from at least six independent measurements and are typically below 10%. […]
P. larvae spore germination was tested with different combinations of L-tyrosine and uric acid. […] Germination rates were determined as above. […]

[8] = Paenibacillus larvae, Table 2, saturating uric acid/L-tyrosine concentrations, read-out: IC50
[9] = 15 minutes incubation, then 3 mM L-tyrosine/3 mM uric acid, read-out: IC50 inhibition of P. larvae spore germination
[10] = Table 1, 15 minutes prior to addition of 3 mM uric acid and 3 mM L-tyrosine, standard deviations in parentheses, N/A = no activity under the conditions tested, read-out: IC50
[11] = environmental P. larvae subsp. larvae compared with strain ATCC 49843

For `Brc1ccc2cc[nH]c2c1` [6-bromoindole], the IC50 (P. larvae spores [1]; [8]) was 60 ± 60 µM and the “survival of honey bee larvae vs P. larvae spores alone” value (shortened to “survival … vs P. larvae spores alone”) [2] was “increased survival”.

Compound `Cc1cccc2cc[nH]c12` [7-methylindole] has an IC50 (P. larvae spores [3]; [9]) of 280 µM and an IC50 (P. larvae spores [3]; [10]) of 280 µM.

Compound `Cc1c[nH]c2ccccc12` [3-methylindole] has an IC50 (P. larvae spores [3]; [9]) of 380 µM and an IC50 (P. larvae spores [3]; [10]) of 380 µM.

For `Oc1ccccc1` [Phenol], the “inhibition of uric acid/L-tyrosine-induced germination” value (P. larvae spores [4]) was “able to inhibit”, the “germination response as co-germinant with uric acid” value (P. larvae spores [5]) was “none of the compounds tested was able to activate” and the “inhibition of germination, both P. larvae sub-species” value [6] was “similarly inhibited”.

In the case of `Cc1ccc2[nH]ccc2c1` [5-methylindole], the IC50 (P. larvae spores [3]; [9]) is reported as 370 µM and the IC50 (P. larvae spores [3]; [10]) is reported as 370 µM.

With `N#Cc1ccc2cc[nH]c2c1` [6-cyanoindole] the IC50 (P. larvae spores [1]; [8]) was 110 ± 10 µM.

For `c1ccc2[nH]ccc2c1` [Indole], the IC50 (P. larvae spores [1]; Paenibacillus larvae) was 370 ± 20 µM, the IC50 (P. larvae spores [1]; Paenibacillus larvae, read-out: IC50 inhibition of P. larvae spore germination (previously shown)) was 400 µM and the “inhibition of uric acid/L-tyrosine-induced germination” value (P. larvae spores [4]) was “able to inhibit”. For the same compound, the IC50 (P. larvae spores [3]) was 330 µM, the IC50 (P. larvae spores [3]; read-out: IC50 inhibition of P. larvae spore germination) was 370 µM and the “inhibition of germination, both P. larvae sub-species” value [6, 11] was “similarly inhibited”.

For `Fc1ccc2cc[nH]c2c1` [6-fluoroindole], the IC50 (P. larvae spores [1]; [8]) was 120 ± 10 µM.

For `N[C@@H](Cc1ccc(O)cc1)C(=O)O` [L-tyrosine], the “germination response as co-germinant with uric acid” value (P. larvae spores [5]) was “strong germination response”, the “germination response to L-tyrosine and uric acid, both P. larvae sub-species” value [6, 11] was “responded identically” and the EC50 (P. larvae spores [7]; read-out: EC50 for L-tyrosine activation of P. larvae spore germination) was 1200 µM.

With `Oc1ccc2[nH]ccc2c1` [5-hydroxyindole] the IC50 (P. larvae spores [1]; [8]) was 550 ± 170 µM.

In the case of `Cn1ccc2ccccc21` [1-N-methylindole], the “IC50 inhibition of P. larvae spore germination” value (P. larvae spores [3]; 15 minutes incubation, then 3 mM L-tyrosine/3 mM uric acid) is reported as “neither activated nor inhibited”.

For `N[C@H](Cc1ccc(O)cc1)C(=O)O` [D-tyrosine, reference compound], the “inhibition of uric acid/L-tyrosine-induced germination” value (P. larvae spores [4]) was “did not inhibit” and the “germination response as co-germinant with uric acid” value (P. larvae spores [5]) was “none of the compounds tested was able to activate”.

In the case of `O=c1[nH]c(=O)c2[nH]c(=O)[nH]c2[nH]1` [uric acid, reference compound], the “germination response to L-tyrosine and uric acid, both P. larvae sub-species” value [6, 11] is reported as “responded identically” and the EC50 (P. larvae spores [7]; titration of uric acid at saturating L-tyrosine concentration (3 mM), read-out: EC50 for uric acid activation of P. larvae spore germination) is reported as 200 µM.

For `Clc1ccc2cc[nH]c2c1` [6-chloroindole], the IC50 (P. larvae spores [1]; [8]) was 20 µM and the “survival … vs P. larvae spores alone” value [2] was “increased survival”.

`N#Cc1cccc2[nH]ccc12` [4-cyanoindole] showed an IC50 (P. larvae spores [1]; [8]) of 200 ± 20 µM.

`O=[N+]([O-])c1ccc2[nH]ccc2c1` [5-nitroindole] was tested, and the IC50 (P. larvae spores [1]; [8]) was 70 ± 10 µM and the “survival … vs P. larvae spores alone” value [2] was “increased survival”.

With `Fc1ccc2[nH]ccc2c1` [5-fluoroindole] the IC50 (P. larvae spores [1]; [8]) was 120 ± 20 µM.

With `Brc1ccc2[nH]ccc2c1` [5-bromindole] the IC50 (P. larvae spores [1]; Table 2, saturating uric acid/L-tyrosine concentrations, read-out: IC50) was 60 ± 70 µM, the “ranking of effect on larval survival among analogs” value [2] was “greatest effect” and the “survival … vs P. larvae spores alone” value [2] was “increased survival”.

— patent US9668479B2, “Modulating germination of Paenibacillus larvae” (THE BOARD OF REGENTS OF THE NEVADA SYSTEM OF HIGHER …, priority 2013, dated 2017)
